Experiments:
[1] = system: oocytes (cumulus oocyte complexes); assay: First polar body extrusion by oocytes in cultured COCs; type: cell-based, mouse; conditions: for effect on the stimulatory effect of BDNF on first polar body extrusion: COCs, cotreatment with BDNF; for first polar body extrusion in cultured oocytes: COCs cultured 20 h without FBS, NGF and NT-3 at 10 ng/ml
Experimental: Evaluation of First Polar Body Extrusion. For evaluating the transition from metaphase I stage to metaphase II (MII) stage oocytes, COCs were obtained from mouse ovaries 48 h after PMSG treatment by puncturing the largest follicles in M2 medium (Specialty Media, Phillipsburg, N.J.). COCs were washed twice, transferred to modified M16 medium (Specialty Media) without FBS, and cultured with or without different doses of BDNF, mouse nerve growth factor (NGF; R & D Systems), or human neurotrophin-3 (NT-3) (R & D Systems) for 20 h at 37° C. in 5% CO2/95% air. Some COCs were also cultured with BDNF with or without the TrkB ectodomain (R & D Systems), pan-specific Trk receptor inhibitor K252a (Calbiochem), or K252b. The occurrence of first polar body extrusion in the oocyte was examined after removing cumulus cells by using a small-bore pipette under Hoffman contrast microscopy (Nikon).

Trk receptor [2] = assay: In vivo first polar body extrusion by ovulated oocytes; parameters: species or system mouse; conditions: PMSG-primed mice, hCG with i.p. compound, 12 h after hCG
Experimental: (§1) In Vivo Analysis. […] For negative controls, the plasma membrane nonsoluble K252b was used. Twelve hours after hCG injection, ovulated COCs were obtained from the oviducts. After treatment with hyaluronidase (Specialty Media) for 1-2 min, oocytes were separated from cumulus cells and the proportion of oocytes showing first polar body extrusion was evaluated. To evaluate the role of BDNF in the conditioning of oocytes for early embryo development, immature mice were treated with PMSG, followed by hCG as described above. […] Fertilized oocytes were separated from cumulus cells, washed three times in M2 medium, and cultured for 5 days in modified M16 medium. Embryonic development was monitored daily, and the progression of fertilized eggs into preimplantation embryos was assessed.

Trk receptor [3] = assay: In vivo treatment, progression of zygotes into blastocysts in vitro; parameters: species or system mouse; conditions: 10 μg i.p. at 0, 4, 8 h after hCG; for decrease in number of cells in the blastocysts / suppression of development of zygotes into blastocyst stage embryos: fertilized oocytes cultured 5 days
Experimental: as §1

[4] = system: oocytes of preovulatory follicles; assay: Preovulatory follicle culture, GVBD of oocytes; type: cell-based, mouse; conditions: cultured preovulatory follicles
Experimental: Follicle Cultures. Preovulatory follicles were excised from mouse ovaries 48 h after PMSG treatment and cultured to examine nuclear maturation of oocytes (Kawamura et al. (2004) Proc. Natl. Acad. Sci. USA 101, 7323-7328). […] The vials were flushed at the start of the culture with O2/N2 (at a 1:1 ratio), sealed, and cultured at 37° C. with gentle shaking for 6 h. After culture, cumulus oocyte complexes (COCs) were isolated, and, after cumulus cells were removed, oocytes were examined for the occurrence of GVBD.

[5] = system: oocytes (cumulus oocyte complexes); assay: In vitro maturation, fertilization and early embryonic development; type: cell-based, mouse
Experimental: In Vitro Maturation, Fertilization, and Early Embryonic Development. We performed in vitro maturation of oocytes followed by in vitro fertilization as previously described, with slight modifications. COCs from PMSG-primed mice were obtained in the M2 medium supplemented with 5% FBS before culturing in minimum essential media-α (Invitrogen) supplemented with Earle's salts, 10 μg/ml streptomycin sulfate, 75 μg/ml penicillin G, and 5% FBS in the presence or absence of 3 ng/ml BDNF at 37° C. in 5% CO2/95% air. After 16 h of treatment, cumulus cells were removed and the oocytes were examined and classified according to their developmental stage (germinal vesicle, metaphase I, or MII). MII-stage oocytes were inseminated with sperm from B6D2F1 males and incubated for 4 h at 37° C. in 5% CO2/95% air. After in vitro fertilization, fertilized oocytes were recovered, washed three times, and cultured in human tubal fluid medium (Specialty Media). The following morning, two-cell stage embryos were collected and cultured in 2 ml of modified M16 medium for 5 days more up to the blastocyst stage at 37° C. in 5% CO2/95% air. Embryonic development was monitored daily by Hoffman modulation contrast microscopy, and the progression of fertilized eggs to preimplantation embryos was assessed.

MII oocytes = assay: Glutathione content in oocytes; type: cell-based, mouse; conditions: COCs treated 16 h
Experimental: FIGS. 4A-E depict BDNF conditioning of oocytes for development into preimplantation embryos. FIG. 4A is a bar graph indicating the percentage of MII oocytes that developed to two-cell or blastocyst-stage embryos. Specifically, COCs obtained from preovulatory follicles were cultured without (control) or with BDNF (3 ng/ml) for 16 h. After progression to the MII stage, oocytes were inseminated and cultured for 5 days more without hormones. The percentage of MII oocytes that developed to two-cell or blastocyst-stage embryos were evaluated (n=5, 34-95 oocytes per experiment). FIG. 4B indicates the effects of BDNF treatment on glutathione (GSH) content in oocytes. After treatment of COCs for 16 h without (control, C) or with BDNF, glutathione levels in oocytes at MII oocytes were evaluated (mean±SEM, n=6). FIG. 4C depicts the effects of K252a treatment in vivo on the progression of zygotes into blastocysts in vitro. […] After initial injection, mice were allowed to mate with fertile males. Fertilized oocytes were cultured for 5 days, and the number of blastocyst embryos was evaluated. FIG. 4D depicts the effects of K252a treatment on the number of cells in the blastocysts. […]
Because the oocyte content of glutathione is important to sperm nuclear decondensation, the glutathione concentration in oocytes also was evaluated. […]

[6] = pretreatment 3 ng/ml BDNF 16 h, then in vitro fertilization without BDNF

Row | Molecule | effect on the stimulatory effect of BDNF on first polar body extrusion [1] | inhibition of first polar body extrusion by ovulated oocytes (Trk receptor [2]) | number of ovulated oocytes per animal (Trk receptor [2]) | decrease in number of cells in the blastocysts (Trk receptor [3]) | suppression of development of zygotes into blastocyst stage embryos (Trk receptor [3]) | first polar body extrusion in cultured oocytes [1] | also measured
1 | COC(=O)[C@@]1(O)C[C@H]2O[C@]1(C)n1c3ccccc3c3c4c(c5c6ccccc6n2c5c31)C(=O)NC4 [K252a] | suppressed | 30% | 37.8±5.3 | 51% | 72% |  | number of fertilized oocytes vs control (Trk receptor [3]; oocytes collected 22 h after hCG): did not differ
2 | TrkB ectodomain: TrkB ectodomain (R & D Systems), antagonises BDNF stimulation | blocked |  |  |  |  | ineffective | 
3 | CC12OC(CC1(O)C(=O)O)n1c3ccccc3c3c4c(c5c6ccccc6n2c5c31)C(=O)NC4 (stereo not shown) [K252b] | not | ineffective | 38.4±8.7 | not | ineffective |  | 
4 | NGF: mouse nerve growth factor (R & D Systems) (protein, UniProt P01139 122-241, looked up) Beta-nerve growth factor: SSTHPVFHMGEFSVCDSVSVWVGDKTTATDIKGKEVTVLAEVNINNSVFRQYFFETKCRASNPVESGCRGIDSKHWNSYCTTTHTFVKALTTDEKQAAWRFIRIDTACVCVLSRKATRRG |  |  |  |  |  | not | 
5 | NT-3: human neurotrophin-3 (R & D Systems) (protein, UniProt P20783 139-257, looked up) Neurotrophin-3: YAEHKSHRGEYSVCDSESLWVTDKSSAIDIRGHQVTVLGEIKTGNSPVKQYFYETRCKEARPVKNGCRGIDDKHWNSQCKTSQTYVRALTSENNKLVGWRWIRIDTSCVCALSRKIGRT |  |  |  |  |  | not | 
6 | BDNF: recombinant human BDNF (Pepro-Tech), neurotrophin, ligand of TrkB (protein, human, recombinant human BDNF (Pepro-Tech), neurotrophin, ligand of TrkB) MTILFLTMVISYFGCMKAAPMKEANIRGQGGLAYPGVRTHGTLESFTVNGPKAGSRGLTSLADTFEHVIEELLDEDQKVRPNEENNKDADLYTSRVMLSSQVPLEPFTPLLFLLEEYKNYLDAANMSMRVRRHSDPARRGELSVCDSISEWVTAADKKTAVDMSGGTFTVTVLEKVPVSKGQLKQYFYETKCNPMGYTKEGCRGIDKRHWNSQCRTTQSYVRALTMDSFTKKRIGWRFIRIDTSCVCTLTIKRGR |  |  |  |  |  | increased | cumulus cell expansion [4]: did not induce; induction of GVBD in oocytes ([4]; 6 h, 5 μg/ml LH or BDNF): not and lack of effect; increase in proportion of oocytes showing first polar body extrusion (MII-stage oocytes) ([5]; COCs, 3 ng/ml BDNF, 16 h, 5% FBS): more than 2 fold; increase in proportion of MII oocytes that developed into blastocyst-stage embryos [5, 6]: 5 fold; increase in proportion of MII oocytes that developed into two-cell embryos [5, 6]: 2 fold; glutathione content in MII oocytes (MII oocytes): increased
